Among the data in ChEMBL document CHEMBL2331461, “Microfluidics assisted synthesis and bioevaluation of sinomenine derivatives as antiinflammatory agents” (Eur J Med Chem, 2013) are inhibition and IC50 values, retold here.

The target in test [1] is Tumor necrosis factor (Homo sapiens) (UniProt P01375). As to the kind of experiment: Inhibition of TNFalpha (unknown origin)-induced NF-kappaB activation in mouse NIH/3T3 cells assessed as inhibition of NF-kappaB binding to DNA at 20 uM after 6 hrs by luciferase reporter gene assay. The class given is cell-based. As to conditions: NIH3T3.
In the next test the test system is NIH3T3. The test is described as follows: Cytotoxicity against mouse NIH/3T3 cells assessed as growth inhibition after 24 hrs by MTT assay. The class given is cell-based.
Test [2] has as its system Mus musculus. The test is described as follows: Antiinflammatory activity in ICR mouse assessed as inhibition of lambda-carrageenan-induced paw edema at 10 mg/kg, ip administered 2 hrs prior to carrageenan challenge measured after 2 to 18 hrs. Type of test: functional, organism-based. More on the design: dose 10 mg/kg.
Test [3] relates to Mus musculus. As to the kind of experiment: Antiinflammatory activity in ICR mouse assessed as inhibition of lambda-carrageenan-induced paw edema at 15 to 30 mg/kg, ip administered 2 hrs prior to carrageenan challenge measured after 6 to 18 hrs. Type of test: functional, organism-based.
Setting [4] is: Mus musculus, NIH3T3, 24 h, read-out: IC50.

The structures appear in SMILES notation. Activity calls are given as the source filed them. The rule behind the calls is not given here.

Sequence of Tumor necrosis factor (Homo sapiens) (P01375 whole entry): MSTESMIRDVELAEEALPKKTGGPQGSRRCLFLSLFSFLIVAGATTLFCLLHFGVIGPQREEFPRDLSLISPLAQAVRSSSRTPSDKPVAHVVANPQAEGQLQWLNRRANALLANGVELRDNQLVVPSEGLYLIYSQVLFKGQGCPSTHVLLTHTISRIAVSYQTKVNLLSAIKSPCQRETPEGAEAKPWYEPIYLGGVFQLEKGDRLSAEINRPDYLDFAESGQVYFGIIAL

Regarding `COC(=O)[C@H]1C(c2ccc(Cl)cc2)=NO[C@@H]1c1cc(OC)c(O)c2c1C[C@@H]1[C@@H]3C=C(OC)C(=O)C[C@]23CCN1C`, the inhibition result in test [1] was “Active”. The IC50 in the test with NIH3T3 (setting [4]) stood at 66.7 µM.

In the case of `COc1ccc2c(c1)c(CC(=O)O)c(C)n2C(=O)c1ccc(Cl)cc1`, the inhibition result with Mus musculus [2] is “Active”.

For `COC(=O)[C@@H]1C(c2ccc(Br)cc2)=NO[C@H]1c1cc(OC)c(O)c2c1C[C@@H]1[C@@H]3C=C(OC)C(=O)C[C@]23CCN1C`, the inhibition result in test [1] is “inactive”. Also, the concentration for half-maximal inhibition (IC50) in the test on NIH3T3 (setting [4]) worked out at 53.1 µM.

`COC(=O)[C@H]1C(c2ccc(Br)cc2)=NO[C@@H]1c1cc(OC)c(O)c2c1C[C@@H]1[C@@H]3C=C(OC)C(=O)C[C@]23CCN1C`: the inhibition entry in test [1] is “Active”. Besides, the IC50 with NIH3T3 (setting [4]) stood at 55.7 µM.

For the compound `COC(=O)[C@H]1C(c2ccc(C)cc2)=NO[C@@H]1c1cc(OC)c(O)c2c1C[C@@H]1[C@@H]3C=C(OC)C(=O)C[C@]23CCN1C`, the inhibition result in test [1] was “Active”. For the same compound, in the test on NIH3T3 (setting [4]), the IC50 was 80.7 µM.

Take `CCCCC(CC)COC(=O)/C=C/c1cc(OC)c(O)c2c1C[C@@H]1[C@@H]3C=C(OC)C(=O)C[C@]23CCN1C` (some centres undefined): in the test with NIH3T3 (setting [4]), the IC50 is 4.8 µM.

As to `COC1=C[C@H]2[C@H]3Cc4c(/C=C/C(=O)OC5CCCCC5)cc(OC)c(O)c4[C@@]2(CCN3C)CC1=O`, the IC50 result in the test with NIH3T3 (nih3t3) is “ND(Insoluble)”.

In the case of `COC(=O)/C(C)=C/c1cc(OC)c(O)c2c1C[C@@H]1[C@@H]3C=C(OC)C(=O)C[C@]23CCN1C`, the 50% inhibitory concentration (IC50) in the test on NIH3T3 (setting [4]) was above 100 µM.

For the compound `COC(=O)[C@@H]1C(c2ccccc2)=NO[C@H]1c1cc(OC)c(O)c2c1C[C@@H]1[C@@H]3C=C(OC)C(=O)C[C@]23CCN1C`, in test [1], the inhibition entry is “inactive”. The IC50 in the test with NIH3T3 (setting [4]) is above 100 µM.

Consider `COC(=O)[C@@H]1C(c2cccc(C)c2)=NO[C@H]1c1cc(OC)c(O)c2c1C[C@@H]1[C@@H]3C=C(OC)C(=O)C[C@]23CCN1C`, for which, in test [1], the inhibition result is “Active”. For the same compound, the IC50 in the test with NIH3T3 (setting [4]) was 78.3 µM.

As to `COC(=O)/C=C/c1cc(OC)c(O)c2c1C[C@@H]1[C@@H]3C=C(OC)C(=O)C[C@]23CCN1C`, the half-maximal inhibitory concentration (IC50) with NIH3T3 (setting [4]) was above 100 µM.

Consider `COC1=C[C@H]2[C@H]3Cc4c(/C=C/C(=O)OC(C)(C)C)cc(OC)c(O)c4[C@@]2(CCN3C)CC1=O`, for which the IC50 with NIH3T3 (setting [4]) was above 100 µM.

Consider `COCCOC(=O)/C=C/c1cc(OC)c(O)c2c1C[C@@H]1[C@@H]3C=C(OC)C(=O)C[C@]23CCN1C`, for which, in the test on NIH3T3 (setting [4]), the half-maximal inhibitory concentration (IC50) is above 100 µM.

For `COC(=O)[C@@H]1C(c2cccc(Cl)c2)=NO[C@H]1c1cc(OC)c(O)c2c1C[C@@H]1[C@@H]3C=C(OC)C(=O)C[C@]23CCN1C`, the inhibition result in test [1] was “inactive”. For the same compound, the concentration for half-maximal inhibition (IC50) with NIH3T3 (setting [4]) stood at 78.3 µM.

Regarding `COC(=O)[C@H]1C(c2ccc(OC)cc2)=NO[C@@H]1c1cc(OC)c(O)c2c1C[C@@H]1[C@@H]3C=C(OC)C(=O)C[C@]23CCN1C`, in test [1], the inhibition entry was “Active”. Besides, the 50% inhibitory concentration (IC50) with NIH3T3 (setting [4]) is above 100 µM.

As to `CCCCOC(=O)/C=C/c1cc(OC)c(O)c2c1C[C@@H]1[C@@H]3C=C(OC)C(=O)C[C@]23CCN1C`, in test [1], the inhibition entry is “Active”. In the test on NIH3T3 (setting [4]), the concentration for half-maximal inhibition (IC50) came out at 80 µM.

As to `COC(=O)[C@@H]1C(c2ccc(C)cc2)=NO[C@H]1c1cc(OC)c(O)c2c1C[C@@H]1[C@@H]3C=C(OC)C(=O)C[C@]23CCN1C`, in test [1], the inhibition entry was “Active”. The IC50 in the test on NIH3T3 (setting [4]) was 78 µM.

As to `COC(=O)[C@@H]1C(c2ccc(Cl)cc2)=NO[C@H]1c1cc(OC)c(O)c2c1C[C@@H]1[C@@H]3C=C(OC)C(=O)C[C@]23CCN1C`, the inhibition result in test [1] is “inactive”. For the same compound, the IC50 with NIH3T3 (setting [4]) worked out at 75.1 µM.

For the compound `COC(=O)[C@H]1C(c2cccc(Cl)c2)=NO[C@@H]1c1cc(OC)c(O)c2c1C[C@@H]1[C@@H]3C=C(OC)C(=O)C[C@]23CCN1C`, the inhibition entry in test [1] was “Active”. In the test on NIH3T3 (setting [4]), the IC50 came to 71.3 µM.

`COC(=O)[C@@H]1C(c2ccc(OC)cc2)=NO[C@H]1c1cc(OC)c(O)c2c1C[C@@H]1[C@@H]3C=C(OC)C(=O)C[C@]23CCN1C`: the inhibition result in test [1] was “inactive”. For the same compound, the IC50 with NIH3T3 (setting [4]) came out at 83.9 µM.

As to `CCOC(=O)/C=C/c1cc(OC)c(O)c2c1C[C@@H]1[C@@H]3C=C(OC)C(=O)C[C@]23CCN1C`, the IC50 in the test with NIH3T3 (setting [4]) was above 100 µM.

For the compound `COC(=O)[C@H]1C(c2cccc(C)c2)=NO[C@@H]1c1cc(OC)c(O)c2c1C[C@@H]1[C@@H]3C=C(OC)C(=O)C[C@]23CCN1C`, the inhibition entry in test [1] is “Active”. Moreover, the IC50 in the test on NIH3T3 (setting [4]) is above 100 µM.

For the compound `COC1=C[C@H]2[C@H]3Cc4c(/C=C/C(=O)OCC(C)C)cc(OC)c(O)c4[C@@]2(CCN3C)CC1=O`, in the test on NIH3T3 (setting [4]), the IC50 is above 100 µM.

As for `CCCCCCOC(=O)/C=C/c1cc(OC)c(O)c2c1C[C@@H]1[C@@H]3C=C(OC)C(=O)C[C@]23CCN1C`, the inhibition result (in the test with Mus musculus [3]; in test [1]) was “Active” throughout. The IC50 in the test with NIH3T3 (setting [4]) is 38.9 µM.

With `COC(=O)[C@H]1C(c2ccccc2)=NO[C@@H]1c1cc(OC)c(O)c2c1C[C@@H]1[C@@H]3C=C(OC)C(=O)C[C@]23CCN1C`, the inhibition result in test [1] is “Active”. For the same compound, the IC50 in the test with NIH3T3 (setting [4]) was above 100 µM.

With `COC1=C[C@@H]2[C@@H]3Cc4ccc(OC)c(O)c4[C@]2(CCN3C)CC1=O` [SINOMENINE], the inhibition entry in test [1] is “inactive”. For the same compound, in the test on NIH3T3 (setting [4]), the IC50 was above 100 µM.
